Source: article PMC9696794, “Synthesis and Antimicrobial Activity of Short Analogues of the Marine Antimicrobial Peptide Turgencin A: Effects of SAR Optimizations, Cys-Cys Cyclization and Lipopeptide Modifications” (International Journal of Molecular Sciences, 2022)
Converted amounts (≈) assume the structure as drawn. Where a SMILES comes first, the peptide text is derived from it. Bridges are numbered along the chain shown (N, C = ends). The star is where a group is joined. Lauroyl = CCCCCCCCCCCC(=O)*; Octanoyl = CCCCCCCC(=O)*

Legend:
[1] = system: C. glutamicum (Cg, ATCC 13032); assay: microbe, parasite or virus in culture; format: cell-based, Corynebacterium glutamicum; details: for Antimicrobial Activity (MIC) Gram + Cg: ATCC 13032, 24 h
In short: (§1)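 Cultures grown in Mueller–Hinton broth were adjusted by OD600 to 2.5–3 × 10^4 CFU/mL and mixed with two-fold peptide dilutions from 256 to 1 µg/mL. Plates were incubated at 35 °C with OD595 monitored every hour for 24 h.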

[2] = system: E. coli MC4100 (wild type, WT); assay: microbe, parasite or virus in culture; details: for MIC E. coli MC4100 (WT): wild type
In short: (§2)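 Broth microdilution in Mueller–Hinton medium, 2.5–3 × 10^4 CFU/mL inoculum, two-fold peptide dilutions from 256 to 1 µg/mL, 35 °C with OD595 read hourly for 24 h. MIC is the lowest concentration giving OD below 10% of the untreated growth control; run in triplicate.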

[3] = system: E. coli NR698 (outer membrane permeable mutant, imp4213); assay: microbe, parasite or virus in culture; details: for MIC E. coli NR698 (mutant): MC4100 NR698 imp4213, deficient outer membrane
In short: as §2

[4] = system: Rhodotorula sp. (Rh); assay: microbe, parasite or virus in culture; format: cell-based; details: 48 h
In short: (§3)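 Overnight cultures in potato dextrose broth with 2% glucose at 25–30 °C were diluted to approx. 4 × 10^5 spores/mL and mixed 1:1 with two-fold peptide dilutions plated at 256 to 1 µg/mL. After 48 h at room temperature, OD600 was read. MIC was the lowest concentration giving OD below 10% of the growth control, in triplicate.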

[5] = system: C. albicans (Ca, ATCC 10231); assay: microbe, parasite or virus in culture; format: cell-based, Candida albicans; details: for Antimicrobial Activity (MIC) Fungi Ca: ATCC 10231, 48 h
In short: as §3

[6] = system: S. epidermidis RP62A (Se, ATCC 35984); assay: microbe, parasite or virus in culture; format: cell-based, Staphylococcus epidermidis; details: for Antimicrobial Activity (MIC) Gram + Se: ATCC 35984, 24 h
In short: as §1

[7] = system: E. coli MC4100 (WT); assay: Outer membrane permeability assay (NPN uptake fluorescence); format: cell-based, Escherichia coli
Procedure: The outer membrane of Gram-negative bacteria acts as a barrier for many hydrophobic and larger hydrophilic substances (>600 Da). However, some peptides can sensitize the outer membrane and thus facilitate the entry of various hydrophobic molecules. To explore if the peptides affect the outer membrane of E. coli MC4100, C12-cTurg-1 and C8-cTurg-2 were tested for their ability to enable the entry of the hydrophobic fluorescent probe 1-N-phenylnapthylamine (NPN, MW of 219 Da) (Figure 5). […] Normally, the hydrophobic NPN is excluded by E. coli bacteria, but it can enter the bacteria once the integrity of the outer membrane is compromised. […] Thus, the observed effects indicate that the outer membrane passage of C8-cTurg-2 was a rate-limiting step that was most likely preventing the peptide from reaching and accumulating in the inner membrane.
The permeability of the E. coli outer membrane was analysed by measuring increased fluorescence as kinetics of 1-N-phenylnaphthylamine (NPN, Sigma-Aldrich) uptake following the protocol described by, with minor modifications. Briefly, a single colony of E. coli MC4100 (WT) was suspended in MH medium and incubated overnight at 37 °C with shaking (225 rpm). The culture was diluted in MH medium and adjusted to OD600 = 0.1 and incubated at 37 °C until it reached an OD600 of 0.5. The cells were centrifuged and washed twice with an assay buffer (5 mM HEPES, 5 mM glucose, pH 7.2) and resuspended in the same buffer to a final OD600 of 1.0. E. coli MC4100 cells were mixed with 20 µM NPN. The assay set up was the same as for the membrane integrity and viability assay, using black round-bottom 96-well microtiter plates (Nunc) containing 10 µL of 2-fold dilutions of peptides (500 to 31.2 µg/mL). A volume of 90 µL of cell suspension with NPN was added to each well by the automated injector of the Synergy H1 Hybrid Reader. The fluorescence was immediately measured (well by well) at an excitation wavelength of 350 nm and an emission wavelength of 420 nm every second for 3 min. The relative fluorescence was calculated by normalizing the values from each time point with the negative control (Milli-Q water). CHX was included as a positive control.

[8] = system: S. aureus (Sa, ATCC 9144); assay: microbe, parasite or virus in culture; format: cell-based, Staphylococcus aureus; details: for Antimicrobial Activity (MIC) Gram + Sa: ATCC 9144, 24 h
In short: as §1

SMILES | Antimicrobial Activity (MIC) Gram + Cg [1] [mg/L] | MIC E. coli MC4100 (WT) [2] [mg/L] | MIC E. coli NR698 (mutant) [3] [mg/L] | Antimicrobial Activity (MIC) Fungi Rh [4] [mg/L] | Antimicrobial Activity (MIC) Fungi Ca [5] [mg/L] | Antimicrobial Activity (MIC) Gram + Se [6] [mg/L] | increase in NPN fluorescence ([7]; E. coli MC4100, 25 to 50 µg/mL) | effect on NPN fluorescence (outer membrane permeabilization) ([7]; not told) | Antimicrobial Activity (MIC) Gram + Sa [8] [mg/L] | MIC ([1]; Corynebacterium glutamicum, ATCC13032, C. glutamicum ATCC 13032, 24 h, read-out: Antimicrobial Activity (MIC) Gram + Cg) [mg/L] | MIC ([2]; Escherichia coli, read-out: MIC E. coli MC4100 (WT)) [mg/L] | MIC ([3]; Escherichia coli, read-out: MIC E. coli NR698 (mutant)) [mg/L] | MIC ([4]; Rhodotorula sp., read-out: Antimicrobial Activity (MIC) Fungi Rh) [mg/L] | MIC ([5]; Candida albicans, ATCC10231, C. albicans ATCC 10231, 48 h, read-out: Antimicrobial Activity (MIC) Fungi Ca) [mg/L] | MIC ([6]; Staphylococcus epidermidis, ATCC35984, S. epidermidis RP62A ATCC 35984, 24 h, read-out: Antimicrobial Activity (MIC) Gram + Se) [mg/L] | effect on NPN fluorescence (outer membrane permeabilization) ([7]; E. coli MC4100, 20 µM NPN, 3 min) | MIC ([8]; Staphylococcus aureus, ATCC9144, S. aureus ATCC 9144, 24 h, read-out: Antimicrobial Activity (MIC) Gram + Sa) [mg/L]
CCCCCCCCCCCC(=O)N[C@H]1CSSC[C@@H](C(=O)N[C@@H](CCCCN)C(=O)N[C@@H](CC(C)C)C(N)=O)NC(=O)[C@H](CCCCN)NC(=O)[C@H](Cc2c[nH]c3ccccc23)NC(=O)CNC(=O)CNC(=O)[C@@H]2CCCN2C(=O)[C@H](CCCCN)NC(=O)[C@H](CCCCN)NC(=O)CNC1=O [Peptide C12-cTurg-1, C12 -(CGKKPGGWKC)KL-NH2] (Lauroyl-CGKKPGGWKCKL-NH2; disulfide 1-10) | 2 | 4 (≈ 2.7 µM) | 2 (≈ 1.35 µM) | 4 | 64 | 4 | almost a four-fold increase | increase the NPN fluorescence in a concentration-dependent manner | 4 | – | – | – | – | – | – | – | –
CCCCCCCC(=O)N[C@H]1CSSC[C@@H](C(=O)N[C@@H](CCCCN)C(=O)N[C@@H](CC(C)C)C(N)=O)NC(=O)[C@H](CCCCN)NC(=O)[C@H](Cc2c[nH]c3ccccc23)NC(=O)CNC(=O)[C@H](Cc2c[nH]c3ccccc23)NC(=O)[C@H](Cc2c[nH]c3ccccc23)NC(=O)[C@H](CCCCN)NC(=O)[C@H](CCCCN)NC(=O)CNC1=O [Peptide C8-cTurg-2, C8- (CGKKWWGWKC)KL-NH2] (Octanoyl-CGKKWWGWKCKL-NH2; disulfide 1-10) | 2 | 8 (≈ 4.86 µM) | 2 (≈ 1.21 µM) | 4 | 32 | 4 | – | increase the NPN fluorescence in a concentration-dependent manner | 4 | – | – | – | – | – | – | – | –
[H]/N=C(\N/C(=N/[H])NCCCCCCNC(=N)NC(=N)Nc1ccc(Cl)cc1)Nc1ccc(Cl)cc1 [Chlorhexidine, reference compound] | – | – | – | – | – | – | – | – | – | 0.8 | 0.3 (≈ 0.594 µM) | 0.3 (≈ 0.594 µM) | 1 | 7.8 | 1.6 | increase the NPN fluorescence in a concentration-dependent manner | 1.6
